The subject of the test is M17-TAU P301L cells. Briefly: TAU cytotoxicity assay: LDH leakage of retinoic acid incubated M17-TAU P301L cells. It is filed as cell-based, human. Particulars: reduction of LDH activity of retinoic acid incubated M17-TAU P301L cells, 7 days. From the text: A TAU expression plasmid was constructed by sub-cloning the cDNA of human TAU-P301 L (encoding for TAU with proline 301 substituted by a leucine residue) into mammalian expression vector pcDNA3.1 resulting in plasmid pcDNA3.1-TAU P301L. Plasmids pcDNA3.1 and pcDNA3.1-TAU P301L were transfected to human neuroblastoma cells ([…]; ATCC No. CRL-2267) and independent clonal lines with the plasmids stably integrated into the genome were selected. […] Expression of the TAU P301L genes in the cell lines was confirmed by Western analysis.
In degenerated or dead cells lactate dehydrogenase (LDH) is leaked out of the cells into the extracellular environment due to a loss of plasma-membrane integrity. This principle was used to determine cytotoxicity by quantifying the level of leaked LDH into the growth medium.
The detailed method for determining TAU cytotoxicity was as follows: From appropriate precultures of M17-3.1 and M17-TAU(P301L) cells were seeded at 2500 cells/cm2 in Optimem Reduced Serum without phenol red (Gibco, Cat. 31985-047) supplemented with 1% fetal calf serum, 1 mM sodium pyruvate, 1× non-essential amino acids, 500 μg/ml G418 0.5× antibiotic/antimycotic. After 3 h of incubation at 37° C./5% CO2 1 volume of Optimem Reduced Serum (same as described above; except without fetal calf serum) supplemented with 2.5 μM retinoic acid (RA) was added. The cells were further incubated for 7 days. Subsequently, LDH activity was determined using Promega Cytotox 96 Non-Radioactive cytotoxicity assay, (Cat. G1780) according the supplier's instructions.
The M17-TAU P301L cell line made it possible to assess the ability of novel compounds to counteract TAU cytotoxicity. […] These measurements were used to calculate EC50 values of table 2.
Exemplary compounds of the present invention are shown in table 2, with their chemical name and their EC50 value (expressed in nM) as determined from example 196 in the Tau-induced toxicity experiment.

By EC50 is commonly meant the concentration giving half of the maximal effect. Consider `CC(c1ccccc1)N1CCC(C(=O)NCCc2c[nH]c3ccc(Cl)cc23)C1=O` (single isomer, unassigned) [D156 Fraction A, N-(2-(5-chloro-1H-indol-3-yl)ethyl)-2-oxo-1-(1-phenylethyl)pyrrolidine-3-carboxamide], for which a half-maximal response (Homo sapiens, 168 h) (EC50) required 0.819 µM.
The molecule `CC(c1ccccc1)N1CCC(C(=O)NCCc2c[nH]c3ccc(Cl)cc23)C1=O` (single isomer, unassigned) [D156 Fraction B, N-(2-(5-chloro-1H-indol-3-yl)ethyl)-2-oxo-1-(1-phenylethyl)pyrrolidine-3-carboxamide] came in with a concentration giving a half-maximal response (EC50) of 1.18 µM.
`COc1cccc(Cc2cc(C(=O)NCCc3c[nH]c4ccc(Cl)cc34)no2)c1` [Example D1, N-(2-(5-chloro-1H-indol-3-yl)ethyl)-5-(3-methoxybenzyl)isoxazole-3-carboxamide] showed an EC50 (Homo sapiens, 168 h) of 0.002 µM.
As to `O=C(NCCc1c[nH]c2ccc(Cl)cc12)c1cc(C2CCCC2)on1` [Example D2, N-(2-(5-chloro-1H-indol-3-yl)ethyl)-5-cyclopentylisoxazole-3-carboxamide], the 50% effective concentration (EC50) (Homo sapiens, 168 h) was determined as 0.003 µM.
Regarding `N#Cc1cccc(Cc2cc(C(=O)NCCc3c[nH]c4ccc(Cl)cc34)no2)c1` [Example D3, N-(2-(5-chloro-1H-indol-3-yl)ethyl)-5-(3-cyanobenzyl)isoxazole-3-carboxamide], the concentration giving a half-maximal response (EC50) (Homo sapiens, 168 h) came to 0.006 µM.
On the same count and under the same terms, then `N#Cc1ccc(Cc2cc(C(=O)NCCc3c[nH]c4ccc(Cl)cc34)no2)cc1` [Example D4, N-(2-(5-chloro-1H-indol-3-yl)ethyl)-5-(4-cyanobenzyl)isoxazole-3-carboxamide], with 0.009 µM; and `O=C(NCCc1c[nH]c2ccc(Cl)cc12)c1cc(C2CC2)on1` [Example D6, N-(2-(5-chloro-1H-indol-3-yl)ethyl)-5-cyclopropylisoxazole-3-carboxamide], with 0.013 µM.
Same read-out and setting: then `O=C(NCCc1c[nH]c2ccc(Cl)cc12)c1cc(Cc2ccccc2)on1` [Example D7, 5-benzyl-N-(2-(5-chloro-1H-indol-3-yl)ethyl)isoxazole-3-carboxamide], with 0.015 µM; and `COc1ccccc1Cc1cc(C(=O)NCCc2c[nH]c3ccc(Cl)cc23)no1` [Example D8, N-(2-(5-chloro-1H-indol-3-yl)ethyl)-5-(2-methoxybenzyl)isoxazole-3-carboxamide], with 0.016 µM; and `O=C(NCCc1c[nH]c2ccc(Cl)cc12)c1cc(Cc2ccc(C(F)(F)F)cc2)on1` [Example D9, N-(2-(5-chloro-1H-indol-3-yl)ethyl)-5-(4-(trifluoromethyl)benzyl)isoxazole-3-carboxamide], with 0.016 µM.
Still for that read-out and setting: then `COc1ccc(Cc2cc(C(=O)NCCc3c[nH]c4ccc(Cl)cc34)no2)cc1` [Example D10, N-(2-(5-chloro-1H-indol-3-yl)ethyl)-5-(4-methoxybenzyl)isoxazole-3-carboxamide], with 0.017 µM; and `O=C(NCCc1c[nH]c2ccc(Cl)cc12)c1cc(-c2ccco2)on1` [Example D11, N-(2-(5-chloro-1H-indol-3-yl)ethyl)-5-(furan-2-yl)isoxazole-3-carboxamide], with 0.017 µM; and `Cc1ccc(Cc2cc(C(=O)NCCc3c[nH]c4ccc(Cl)cc34)no2)cc1` [Example D12, N-(2-(5-chloro-1H-indol-3-yl)ethyl)-5-(4-methylbenzyl)isoxazole-3-carboxamide], with 0.017 µM.
Consider `O=C(NCCc1c[nH]c2ccc(Cl)cc12)c1cc(C2CCCCC2)on1` [Example D13, N-(2-(5-chloro-1H-indol-3-yl)ethyl)-5-cyclohexylisoxazole-3-carboxamide], for which a half-maximal response (Homo sapiens, 168 h) (EC50) required 0.018 µM.
The molecule `Cc1ccc2[nH]cc(CCNC(=O)c3cc(Cc4cccc(F)c4)on3)c2c1` [Example D14, 5-(3-fluorobenzyl)-N-(2-(5-methyl-1H-indol-3-yl)ethyl)isoxazole-3-carboxamide] displayed an EC50 (Homo sapiens, 168 h) of 0.019 µM.
Still for that read-out and setting: under `Cn1nc(C(=O)NCCc2c[nH]c3ccc(Cl)cc23)cc1-c1cccs1` [Example D15, N-(2-(5-chloro-1H-indol-3-yl)ethyl)-1-methyl-5-(thiophen-2-yl)-1H-pyrazole-3-carboxamide] stands 0.021 µM; under `O=C(NCCc1c[nH]c2ccc(Cl)cc12)c1cc(-c2cccs2)on1` [Example D16, N-(2-(5-chloro-1H-indol-3-yl)ethyl)-5-(thiophen-2-yl)isoxazole-3-carboxamide], 0.021 µM; under `O=C(NCCc1c[nH]c2ccc(Cl)cc12)c1cc(Cc2ccco2)on1` [Example D17, N-(2-(5-chloro-1H-indol-3-yl)ethyl)-5-(furan-2-ylmethyl)isoxazole-3-carboxamide], 0.022 µM.
On the same count and under the same terms, under `Cn1nc(C(=O)NCCc2c[nH]c3ccc(Cl)cc23)cc1-c1ccco1` [Example D19, N-(2-(5-chloro-1H-indol-3-yl)ethyl)-5-(furan-2-yl)-1-methyl-1H-pyrazole-3-carboxamide] stands 0.023 µM; under `Cc1cccc(Cc2cc(C(=O)NCCc3c[nH]c4ccc(Cl)cc34)no2)c1` [Example D20, N-(2-(5-chloro-1H-indol-3-yl)ethyl)-5-(3-methylbenzyl)isoxazole-3-carboxamide], 0.023 µM.
On the same count and under the same terms, under `COc1cccc(Cc2cc(C(=O)NCCc3c[nH]c4ccc(Cl)cc34)no2)c1F` [Example D21, N-(2-(5-chloro-1H-indol-3-yl)ethyl)-5-(2-fluoro-3-methoxybenzyl)isoxazole-3-carboxamide] stands 0.025 µM.
In the case of `O=C(NCCc1c[nH]c2ccc(Cl)cc12)c1cc(Cc2ccoc2)on1` [Example D22, N-(2-(5-chloro-1H-indol-3-yl)ethyl)-5-(furan-3-ylmethyl)isoxazole-3-carboxamide], where the note is “Homo sapiens, 168 h”, the 50% effective concentration (EC50) was 0.028 µM.
On the same count and under the same terms, under `O=C(NCCc1c[nH]c2ccc(Cl)cc12)c1cc(Cc2cccc(F)c2)on1` [Example D23, N-(2-(5-chloro-1H-indol-3-yl)ethyl)-5-(3-fluorobenzyl)isoxazole-3-carboxamide] stands 0.03 µM; under `Cc1ccc(-c2nc(C)c(C(=O)NCCc3c[nH]c4ccccc34)s2)cc1` [Example D24, N-(2-(1H-indol-3-yl)ethyl)-4-methyl-2-p-tolylthiazole-5-carboxamide], 0.034 µM; under `O=C(NCCc1c[nH]c2ccc(Cl)cc12)c1cc(Cc2ccsc2)on1` [Example D25, N-(2-(5-chloro-1H-indol-3-yl)ethyl)-5-(thiophen-3-ylmethyl)isoxazole-3-carboxamide], 0.035 µM.
On the same count and under the same terms, then `Cn1nc(C(=O)NCCc2c[nH]c3ccc(Cl)cc23)cc1-c1ccccc1` [Example D26, N-(2-(5-chloro-1H-indol-3-yl)ethyl)-1-methyl-5-phenyl-1H-pyrazole-3-carboxamide], with 0.038 µM; and `O=C(NCCc1c[nH]c2ccc(Cl)cc12)c1cc(Cc2cccs2)on1` [Example D27, N-(2-(5-chloro-1H-indol-3-yl)ethyl)-5-(thiophen-2-ylmethyl)isoxazole-3-carboxamide], with 0.038 µM; and `O=C(NCCc1c[nH]c2ccc(F)cc12)c1cc(Cc2cccc(F)c2)on1` [Example D28, N-(2-(5-fluoro-1H-indol-3-yl)ethyl)-5-(3-fluorobenzyl)isoxazole-3-carboxamide], with 0.041 µM.
Still for that read-out and setting: then `CC(C)(C)OC(=O)Nc1cc(C(=O)NCCc2c[nH]c3ccc(Cl)cc23)no1` [Example D29, tert-butyl 3-(2-(5-chloro-1H-indol-3-yl)ethylcarbamoyl)isoxazol-5-ylcarbamate], with 0.042 µM; and `O=C(NCCc1c[nH]c2ccc(Cl)cc12)c1cc(Cc2cccc(C(F)(F)F)c2)on1` [Example D30, N-(2-(5-chloro-1H-indol-3-yl)ethyl)-5-(3-(trifluoromethyl)benzyl)isoxazole-3-carboxamide], with 0.042 µM.
On to `O=C(NCCc1c[nH]c2ccccc12)c1cc(Cc2cccc(F)c2)on1` [Example D31, N-(2-(1H-indol-3-yl)ethyl)-5-(3-fluorobenzyl)isoxazole-3-carboxamide], for which the response (Homo sapiens, 168 h) was half-maximal at 0.044 µM (EC50).
Same read-out and setting: under `COc1ccc2[nH]cc(CCNC(=O)c3sc(-c4ccc(C)cc4)nc3C)c2c1` [Example D32, N-(2-(5-methoxy-1H-indol-3-yl)ethyl)-4-methyl-2-p-tolylthiazole-5-carboxamide] stands 0.05 µM; under `CCCc1cc(-c2nc(C)c(C(=O)NCCc3c[nH]c4ccccc34)s2)ccn1` [Example D33, N-(2-(1H-indol-3-yl)ethyl)-4-methyl-2-(2-propylpyridin-4-yl)thiazole-5-carboxamide], 0.056 µM; under `O=C(NCc1c[nH]c2ccc(Cl)cc12)c1cc(Cc2cccc(F)c2)on1` [Example D34, N-((5-chloro-1H-indol-3-yl)methyl)-5-(3-fluorobenzyl)isoxazole-3-carboxamide], 0.059 µM.
The same measure, in the same setting: then `O=C(NCCCc1c[nH]c2ccc(Cl)cc12)c1cc(Cc2cccc(F)c2)on1` [Example D35, N-(3-(5-chloro-1H-indol-3-yl)propyl)-5-(3-fluorobenzyl)isoxazole-3-carboxamide], with 0.06 µM.

Values taken from patent publication US8618138B2, “Indole amide derivatives and related compounds for use in the treatment of neurodegenerative diseases” (Katholieke Universiteit Leuven, K.U. Leuven R&D, priority 2009, dated 2013).
